Biological target: tau (Homo sapiens, UniProt P10636)
Assay: displacement tau binding assay in AD brain homogenates with [^3H]-6
Method: The frozen human brain samples of Alzheimer's disease (AD) were purchased from Analytic Biological Services Inc. They were postmortem tissue from donors with clinical diagnosis of AD. As much of the white matter was dissected out of the frontal cortex in order to enrich the tissue preparations for gray matter. Brain homogenates of gray matter enriched frontal cortex were prepared by homogenizing the tissue in ice cold Phosphate Buffered Saline (PBS), pH 7.4 at 80 mg wet weight tissue per 1 mL for 45 seconds at 4° C. on setting 16 of Polytron. The homogenate was further diluted with ice cold PBS to 30 mg wet weight tissue per 1 mL and homogenized for an additional minute as described above. Homogenates were aliquoted in 5 ml/tube and store at −70° C. until use. […] Brain homogenates were diluted to 0.5 mg/mL from original 30 mg/mL volume in Assay Buffer, and 200 μl were added to the assay plate for a final concentration of 100 μg wet weight/assay tube. [^3H]-6 was prepared at […] final concentration in Assay Buffer plus 20% DMSO and 25 μl was added to the assay plate for final assay concentration of 0.25 nM. The assay plate was incubated at room temperature (25° C.) for 90 minutes. […] Filter plates were dried for 1 hour in a vacuum oven and 50 μl/well MicroScint-20 were added. Plates were counted 1 min per well by Packard Topcount. Total amount of radioligand used in the assay was determined by counting 25 μl of 10× ligand stock. […] Tau Ki data for representative compounds of the invention are found in Table 1.

[1] = Table 2, displacement of [^3H]-6 (0.25 nM)
[2] = Table 1, displacement of [^3H]-6 (0.25 nM)

Chain of tau (P10636 2-758 limits assumed): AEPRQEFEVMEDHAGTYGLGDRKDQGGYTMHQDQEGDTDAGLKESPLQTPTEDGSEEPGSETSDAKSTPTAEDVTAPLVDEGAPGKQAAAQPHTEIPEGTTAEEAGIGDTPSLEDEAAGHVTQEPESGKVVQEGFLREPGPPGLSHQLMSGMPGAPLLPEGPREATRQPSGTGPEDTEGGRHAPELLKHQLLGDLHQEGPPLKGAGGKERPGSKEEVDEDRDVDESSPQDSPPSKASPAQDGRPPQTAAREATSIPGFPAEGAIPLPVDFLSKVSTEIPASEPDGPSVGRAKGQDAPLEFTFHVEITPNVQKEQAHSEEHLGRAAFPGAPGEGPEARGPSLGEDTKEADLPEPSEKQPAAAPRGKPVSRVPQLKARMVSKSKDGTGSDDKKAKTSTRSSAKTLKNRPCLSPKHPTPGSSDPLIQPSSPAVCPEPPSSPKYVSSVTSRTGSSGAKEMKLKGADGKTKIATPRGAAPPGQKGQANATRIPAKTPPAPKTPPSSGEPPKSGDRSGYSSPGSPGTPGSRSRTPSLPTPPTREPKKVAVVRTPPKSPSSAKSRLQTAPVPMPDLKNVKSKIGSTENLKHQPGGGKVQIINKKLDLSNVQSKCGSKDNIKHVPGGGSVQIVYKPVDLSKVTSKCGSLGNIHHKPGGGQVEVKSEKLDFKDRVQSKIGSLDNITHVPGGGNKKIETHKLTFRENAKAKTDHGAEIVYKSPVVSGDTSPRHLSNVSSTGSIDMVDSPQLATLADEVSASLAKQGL

Structure (SMILES) | Ki [1] [nM] | Ki [2] [nM]
Nc1cc(I)c2cc(-n3ccc4ccncc43)ncc2c1 [Compound 128] | 6.21 | 
CC#Cc1cnc(-n2ccc3ccncc32)cc1CO [Compound 21-4, (5-(prop-1-ynyl)-2-(1H-pyrrolo[2,3-c]pyridin-1-yl)pyridin-4-yl)methanol] |  | 3.35
Fc1cccc(-c2ccc(-n3ccc4ccncc43)nc2)n1 [Compound 91] |  | 1.41
Fc1cccc2cnc(-n3ccc4ccncc43)cc12 [Compound 54] |  | 1.05
FCCCNc1ccc(-n2ccc3ccncc32)nc1 [Compound 35, N-(3-fluoropropyl)-6-(1H-pyrrolo[2,3-c]pyridin-1-yl)pyridin-3-amine] |  | 3.19
Nc1cccc2cc(-n3ccc4ccncc43)ncc12 [Compound 59] |  | 0.33
Cn1ccc2cc(-n3ccc4ccncc43)ncc21 [Compound 19, 1′-methyl-1,5′-bi(1H-pyrrolo[2,3-c]pyridine)] |  | 0.62
Nc1c(I)ccc2cc(-n3ccc4ccncc43)ncc12 [Compound 121] | 0.512 | 
CC#Cc1cnc(-n2ccc3ccncc32)cc1OC [Compound 33, 1-(4-methoxy-5-(prop-1-ynyl)pyridin-2-yl)-1H-pyrrolo[2,3-c]pyridine] |  | 3.34
Nc1c(F)ccc2cc(-n3ccc4ccncc43)ncc12 [Compound 110] | 2.15 | 
Fc1ccc2cnc(-n3ccc4ccncc43)cc2c1 [Compound 9, 6-fluoro-3-(1H-pyrrolo[2,3-c]pyridin-1-yl)isoquinoline] |  | 0.22
Oc1ccc2nc(-n3ccc4ccncc43)ncc2c1 [Compound 24-5, 2-(1H-pyrrolo[2,3-c]pyridin-1-yl)quinazolin-6-ol] |  | 11.1
c1cc2ccn(-c3ccc(-c4nc[nH]n4)cn3)c2cn1 [Compound 41, 1-(5-(1H-1,2,4-triazol-3-yl)pyridin-2-yl)-1H-pyrrolo[2,3-c]pyridine] |  | 8.8
FCCOc1ccc2nc(-n3ccc4ccncc43)ncc2c1 [Compound 69] |  | 9.33
Nc1ccc2cnc(-n3ccc4ccncc43)cc2c1F [Compound 111] | 1.09 | 
Nc1cccc2cnc(-n3ccc4cc(F)ncc43)cc12 [Compound 106] | 10000 | 
CN(CCF)c1ccc2cnc(-n3ccc4ccncc43)cc2c1 [Compound 14, N-(2-fluoroethyl)-N-methyl-3-(1H-pyrrolo[2,3-c]pyridin-1-yl)isoquinolin-6-amine] |  | 2.28
CNc1ccc2cnc(-n3ccc4ccncc43)cc2c1 [Compound 14-1, N-methyl-3-(1H-pyrrolo[2,3-c]pyridin-1-yl)isoquinolin-6-amine] |  | 0.33
FCC#Cc1ccc(-n2ccc3ccncc32)nc1 [Compound 7, 1-(5-(3-fluoroprop-1-ynyl)pyridin-2-yl)-1H-pyrrolo[2,3-c]pyridine] |  | 1.65
Nc1ccc(I)c2cc(-n3ccc4ccncc43)ncc12 [Compound 120] | 93.8 | 
COc1cc2ccn(-c3cc4cc(F)ccc4cn3)c2cn1 [Compound 130] | 4.03 | 
FCCOc1cccc2cnc(-n3ccc4ccncc43)cc12 [Compound 71] |  | 172
c1cc2ccn(-c3cc4c(cn3)CCCN4)c2cn1 [Compound 39, 7-(1H-pyrrolo[2,3-c]pyridin-1-yl)-1,2,3,4-tetrahydro-1,6-naphthyridine] |  | 10.8
Ic1ccc2cnc(-n3ccc4ccncc43)cc2c1 [Compound 20, 6-iodo-3-(1H-pyrrolo[2,3-c]pyridin-1-yl)isoquinoline] |  | 0.75

Structure (SMILES) | Ki [1] [nM] | Ki [2] [nM]
Oc1ccc2cnc(-n3ccc4ccncc43)cc2c1 [Compound 75] |  | 0.48
FCCn1ccc(-c2ccc(-n3ccc4ccncc43)nc2)n1 [Compound 104, 1-(5-(1-(2-fluoroethyl)-1H-pyrazol-3-yl)pyridin-2-yl)-1H-pyrrolo[2,3-c]pyridine] |  | 1.71
Nc1cccc2cnc(-n3ccc4ccncc43)cc12 [Compound 11-5, 3-(1H-pyrrolo[2,3-c]pyridin-1-yl)isoquinolin-5-amine] |  | 0.4
FC1CCN(c2ccc(-n3ccc4ccncc43)nc2)CC1 [Compound 43, 1-(5-(4-fluoropiperidin-1-yl)pyridin-2-yl)-1H-pyrrolo[2,3-c]pyridine] |  | 10
Nc1ccc2cc(-n3ccc4ccncc43)ncc2c1 [Compound 12, 3-(1H-pyrrolo[2,3-c]pyridin-1-yl)isoquinolin-7-amine] |  | 0.29
Nc1ccc(F)c2cc(-n3ccc4ccncc43)ncc12 [Compound 117] | 2 | 
Fc1nc(-n2ccc3ccncc32)ccc1-c1cccnc1 [Compound 37, 1-(2-fluoro-3,3′-bipyridin-6-yl)-1H-pyrrolo[2,3-c]pyridine] |  | 19.7
c1cc(-c2ccc(-n3ccc4ccncc43)nc2)ncn1 [Compound 46, 1-(5-(pyrimidin-4-yl)pyridin-2-yl)-1H-pyrrolo[2,3-c]pyridine] |  | 2.19
C=Cc1cc(-n2ccc3ccncc32)ncc1C#CCF [Compound 30, 1-(5-(3-fluoroprop-1-ynyl)-4-vinylpyridin-2-yl)-1H-pyrrolo[2,3-c]pyridine] |  | 2.44
COc1ccc(NC(=O)c2ccc(-n3ccc4ccncc43)nc2)cc1 [Compound 34, N-(4-methoxyphenyl)-6-(1H-pyrrolo[2,3-c]pyridin-1-yl)nicotinamide] |  | 3.83
Nc1ccc2cc(-n3ccc4ccncc43)ncc2c1I [Compound 122] | 1.77 | 
Nc1cc(I)cc2cnc(-n3ccc4ccncc43)cc12 [Compound 127] | 1.17 | 
Nc1cc2cnc(-n3ccc4ccncc43)cc2cc1F [Compound 105, 6-fluoro-3-(1H-pyrrolo[2,3-c]pyridin-1-yl)isoquinolin-7-amine] | 0.383 | 
c1ccc(-c2ccc(-n3ccc4ccncc43)nc2)nc1 [Compound 101] |  | 1.14
CC#Cc1ccc(-n2ccc3ccncc32)nc1 [Compound 52] |  | 0.98
FCOc1cccc2cc(-n3ccc4ccncc43)ncc12 [Compound 55] |  | 1.14
Nc1cc2cc(-n3ccc4ccncc43)ncc2cc1I [Compound 126] | 0.18 | 
Nc1ccc(F)c2cnc(-n3ccc4ccncc43)cc12 [Compound 116] | 1.28 | 
FCOc1ccc2cc(-n3ccc4ccncc43)ncc2c1 [Compound 17, 7-(fluoromethoxy)-3-(1H-pyrrolo[2,3-c]pyridin-1-yl)isoquinoline] |  | 0.43
FCCOc1cccc2cc(-n3ccc4ccncc43)ncc12 [Compound 67] |  | 6.75
Oc1cccc2cnc(-n3ccc4ccncc43)cc12 [Compound 49] |  | 0.67
Fc1ccc2nc(-n3ccc4ccncc43)ncc2c1 [Compound 62] |  | 2.55
Nc1cc(F)cc2cc(-n3ccc4ccncc43)ncc12 [Compound 112] | 0.672 | 

— US10022461B2, “Pyrrolo[2,3-C]pyridines as imaging agents for neurofibrilary tangles” (MERCK SHARP & DOHME CORP., priority 2014, dated 2018)
